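In this assay, cells in 96-well plates receive the compound at five concentrations for 48 hours. Endpoints are linearly interpolated between the surrounding concentrations. Definition used: TGI = concentration required for complete inhibition of growth.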
Legend:
Experiment in all cases: NCI tumour cell line growth inhibition, 48 h
[1] = tested on: 786-0 renal
[2] = tested on: A498 renal
[3] = tested on: IGROV1 ovarian
[4] = tested on: MOLT-4 leukemia
[5] = tested on: NCI-H23 lung
[6] = tested on: NCI/ADR-RES ovarian
[7] = tested on: SF-268 CNS
[8] = tested on: SK-MEL-28 melanoma
[9] = tested on: U251 CNS
[10] = tested on: UACC-62 melanoma

Compound | TGI [1] [µM] | TGI [2] [µM] | TGI [3] [µM] | TGI [4] [µM] | TGI [5] [µM] | TGI [6] [µM] | TGI [7] [µM] | TGI [8] [µM] | TGI [9] [µM] | TGI [10] [µM]
Cn1c(=O)c2c(nc3n(Cc4ccccc4)c(=O)c(NCCBr)cn23)n(C)c1=O | 37 | 91.1 | > 100 | > 100 | > 100 | 60.2 | > 100 | > 100 | > 100 | > 100
COc1ccc2cc1Oc1ccc(cc1)C(Sc1ccccc1)CCOC(=O)CC2 (stereo not given) | > 100 | > 100 | > 100 | > 100 | > 100 | > 100 | > 100 | > 100 | > 100 | > 100
O=C(/C=C/c1ccsc1)c1ccco1 | 24.4 | 17.8 | 22.8 | 36 | 30.9 | 40.5 | 38.5 | 25.4 | 20.3 | 29.2
C=CC1ON(Cc2ccccc2)CCc2cc(OC)c(OC)cc21 (stereo not given) | > 100 | 67.8 | > 100 | > 100 | > 100 | > 100 | > 100 | > 100 | > 100 | > 100
O=C1Sc2ccc(Br)cc2C(=O)Sc2ccccc21 | 25.6 | 43.6 | 31.6 | 19.9 | 36 | 60 | 22.3 | 42.7 | 27.6 | 31.8
CCOC(=O)/C(=C\c1ccc(N(C)C)cc1)S(=O)(=O)C(F)(F)C(F)(F)C(F)(F)C(F)(F)F | > 100 | > 100 | > 100 | > 100 | > 100 | > 100 | > 100 | > 100 | > 100 | > 100
O=c1[nH]nc(-c2ccccc2)n1/N=C/c1c[nH]c2ccccc12 | > 100 | > 100 | > 100 | > 100 | > 100 | > 100 | > 100 | > 100 | > 100 | > 100
CC1(C)[C@@H](Cn2cnc3c(N)ncnc32)CC[C@@]1(C)CO | > 100 | > 100 | > 100 | > 100 | > 100 | > 100 | > 100 | > 100 | > 100 | > 100
COc1cc(OC)c2c(O)c3c(cc2c1)CC(C)(C)CC3=O | > 100 | > 100 | > 100 | > 100 | > 100 | > 100 | > 100 | > 100 | > 100 | > 100
CC(C)[C@@H]1CC[C@@H](C)C[C@H]1OC(=O)/C=C1/C2C=CC(O2)C1C(=O)O[C@@H]1C[C@H](C)CC[C@H]1C(C)C (stereo not given in full) | > 100 | > 100 | > 100 | > 100 | > 100 | > 100 | > 100 | > 100 | > 100 | > 100
COC1=C(N=[N+]=[N-])C(=O)c2ncccc2C1=O | 16.3 | 30.9 | 13.1 | 2.86 | 16.1 | 25.6 | 28.5 | 27.4 | 27.7 | 20.8
COC(=O)c1ccccc1C#CC#Cc1ccccc1C(=O)OC | > 10 | > 10 | > 10 | > 10 | > 10 | > 10 | > 10 | > 10 | > 10 | > 10
CN(C)c1ccc(/C=C2\N=C(NN)NC2=O)cc1 | > 100 | > 100 | > 100 | > 100 | > 100 | > 100 | > 100 | > 100 | > 100 | > 100
COC(=O)C(C)(N=Cc1ccccc1)c1ccccc1 (stereo not given) | > 100 | > 100 | > 100 | > 100 | > 100 | > 100 | > 100 | > 100 | > 100 | > 100
NNc1nc2ccccc2c(=O)n1NC(=O)C(=O)Nc1cccc(C(F)(F)F)c1 | > 100 | > 100 | > 100 | > 100 | > 100 | > 100 | > 100 | > 100 | > 100 | > 100
O=C1CSC(/C(=C\c2ccc(Cl)cc2)c2nc3ccccc3[nH]2)=N1 | 26.4 | 16 | 22.4 | > 100 | 30.7 | 36.9 | 23 | 32.6 | 25.6 | 33.5
N#Cc1c(SCc2ccccc2)nc(-c2ccccc2)[nH]c1=S | 48 | 63.8 | 79.4 | 85.2 | 47.7 | 67.4 | 57 | 55 | 45.1 | 56.6
CC(C)C(C/C=C1\CC(CO)(COC(=O)c2ccccc2)OC1=O)C(C)C (stereo not given) | 28.3 | 50.7 | 37.2 | 42.6 | 38 | 45 | 35.5 | 30.2 | 39.1 | > 100
Clc1nc(Cl)c(Cl)c(Cl)n1 | 41.4 | 34.6 | 38.7 | 15.5 | 40.3 | 59.4 | 56.9 | 41.3 | 36.1 | 35.7
Clc1ccc(Cc2nc3ccc(CCN4CCN(c5ccccc5)CC4)cc3[nH]2)cc1 | 23.1 | 32.5 | 90.6 | 40.6 | 32.5 | 51.6 | > 100 | 54.3 | 26.5 | 33.6
CCCCCC(=O)N[C@@H](c1ccccc1)C(O)C(=O)OC1C[C@@]2(O)C(OC(=O)c3ccccc3)C3[C@](C)(C(=O)[C@H](O)C(=C1C)C2(C)C)C(OC1OCC(O)C(O)C1O)C[C@H]1OC[C@@]31OC(C)=O (stereo not given in full) | > 100 | > 100 | > 100 | > 100 | > 100 | > 100 | > 100 | > 100 | > 100 | > 100
O=[N+]([O-])/C(C(Cl)=C(Cl)Cl)=C1\NCCO1 | > 100 | > 100 | > 100 | > 100 | > 100 | > 100 | > 100 | > 100 | > 100 | > 100
CN(C(=O)Cc1ccc(Cl)c(Cl)c1)[C@H]1CCCC[C@@H]1[N+]1(C)CCCC1 | > 100 | > 100 | > 100 | > 100 | > 100 | > 100 | > 100 | > 100 | > 100 | > 100
ClC(Cl)(Cl)C1=N[C@H]2[C@H](Br)[C@@H]3O[C@@H](c4ccccc4)[C@H](c4ccccc4)O[C@@H]3[C@H]2O1 | 39.6 | 31.3 | 30.9 | 45.7 | 42.3 | 65.2 | 37.2 | 37.1 | 31.2 | 31.5
Cc1cc(CNC(=O)OCc2ccccc2)c(C)c2c1Oc1ccccc1O2 | 35.6 | 74.7 | > 100 | > 100 | > 100 | > 71.4 | > 74.3 | > 100 | > 67.3 | > 100
Cc1sc2nc(-c3cc([N+](=O)[O-])c(Cl)cc3Cl)c(/C=N/N=C(N)N)n2c1C | > 100 | 38.6 | 9.12 | 4.64 | 18.7 | > 100 | 66.1 | 6.58 | > 100 | 39.5
CNc1ccc(-c2nc3cc(C)ccc3o2)cc1 | > 100 | 77.8 | > 100 | > 100 | > 100 | > 100 | > 100 | > 100 | > 100 | > 100
CCCCCCCCCCCCCCCCCCNc1ccn(C2OC(COP(=O)(O)OCC3CCC(n4cnc5c(=O)[nH]cnc54)O3)C(O)C2O)c(=O)n1 (stereo not given) | > 100 | > 100 | > 100 | > 100 | > 100 | > 100 | > 100 | > 100 | > 100 | > 100
COc1ccc(S(=O)(=O)O)cc1-n1nc(C(=O)Nc2ccccc2)n[n+]1-c1cc(S(=O)(=O)[O-])ccc1OC | > 100 | > 100 | > 100 | > 100 | > 100 | > 100 | > 100 | > 100 | > 100 | > 100

From PubChem BioAssay (NCI)
